Assay results from EP3820879B1, “PHOSPHORUS-CONTAINING PRODRUGS OF GEMCITABINE” (Changchun Changcheng Pharmaceutical Technology Co., LTD, priority 2018, dated 2020).

Assay: Mouse pharmacokinetic study: liver concentrations of dFdC and dFdU at 2h
Type: in vivo, C57BL/6 mice
Settings: i.v., Gemcitabine 15 mg/kg or Compound 4 at equivalent dose, Fig. 2
Description: C57BL/6 mice used in this experiment were purchased from Beijing Vital River Laboratory Animal Technology Co., Ltd., and male mice with a body weight in the range of 16~19 g were tested for administration. The animals were housed with appropriate air conditions (temperature: 20~25 °C; humidity: 40%~70%; light/dark cycle: 12 hours), and were provided with the food and water ad lib.
The solution media for IV administration were DMSO: 30% solutol HS-15:saline = 10:10:80 (v/v/v). Test substances were dissolved in the media to obtain a clear solution, and filtered through PTFE to get a colorless clear solution for IV administration.
The solution media for oral administration were DMSO: 30% solutol HS-15:saline = 10:10:80 (v/v/v). […]
The pharmacokinetic (PK) profile of liver-targeted gemcitabine (dFdC) prodrug according to Formula I (i.e., Compound 4) was evaluated in male […] mice following intravenous administration (i.v.) at an equivalent dose to 15 mg/kg of Gemcitabine or following oral administration (PO or i.g.) at a dose of 80 mg/kg.
Blood samples of designated animals (n = 3/time point/compound) were taken at 0.083, 0.25, 0.5, 1, 2, 4, and 8 hours following i.v. administration, and at 0.25, 0.5, 1, 2, 4, 8 and 24 hours following PO administration, respectively. […] Pharmacokinetic parameters were calculated using WinNonlin software (Pharsight Corp., Mountain View, CA).

For `Nc1ccn([C@@H]2O[C@H](CO)[C@@H](O)C2(F)F)c(=O)n1` [Gemcitabine, 2',2'-difluoro-2'-deoxycytidine], the “dFdC levels in the liver” value was “no detectable dFdC levels” and the “dFdU levels in the liver” value was “significant levels of dFdU”.
